We go through 5 molecules from patent US20090005373A1, “SUBSTITUTED SULFONAMIDO-MACROCYCLES AS TIE2 INHIBITORS AND SALTS THEREOF, PHARMACEUTICAL COMPOSITIONS COMPRISING SAME, METHODS OF PREPARING SAME AND USES OF SAME” (priority 2006, published 2009).

As a reminder, the IC50 is the concentration needed to halve the response being measured. A lower IC50 goes with greater potency in that assay.

Common to all, as to assay type: biochemical
The target of one experiment is T1, Tie-2 (Homo sapiens, UniProt Q02763).
T1 construct: A recombinant fusion protein of GST and the intracellular domains of Tie-2, expressed in insect cells (Hi-5); GST; made in house; host or cells: Hi-5 insect cells
Nature of the experiment: Tie-2-Kinase HTRF-Assay without Kinase Preactivation (assay 2). The following applies: 10 μM ATP, no kinase preactivation. The text has this: Tie2-inhibitory activity of compounds of the present invention was quantified employing two Tie2 HTRF assay as described in the following paragraphs.
A recombinant fusion protein of GST and the intracellular domains of Tie-2, expressed in insect cells (Hi-5) and purified by Glutathion-Sepharose affinity chromatography was used as kinase. Alternatively, commercially available GST-Tie2-fusion protein (Upstate Biotechnology, Dundee, Scotland) can be used As substrate for the kinase reaction the biotinylated peptide biotin-Ahx-EPKDDAYPLYSDFG (C-terminus in amid form) was used which can be purchased e.g. from the company Biosynthan GmbH (Berlin-Buch, Germany). Detection of phosphorylated product is achieved specifically by a trimeric detection complex consisting of the phosphorylated substrate, streptavidin-XLent (SA-XLent) which binds to biotin, and Europium Cryptate-labeled anti-phosphotyrosine antibody PT66 which binds to phosphorylated tyrosine.
Tie-2 (3.5 ng/measurement point) was incubated for 60 min at 22° C. in the presence of 10 μM adenosine-tri-phosphate (ATP) and 1 μM substrate peptide (biotin-Ahx-EPKDDAYPLYSDFG-NH2) with different concentrations of test compounds (0 μM and concentrations in the range 0.001-20 μM) in 5 μl assay buffer [50 mM Hepes/NaOH pH 7, 10 mM MgCl2, 0.5 mM MnCl2, 1.0 mM dithiothreitol, 0.01% NP40, protease inhibitor mixture (“Complete w/o EDTA” from Roche, 1 tablet per 2.5 ml), 1% (v/v) dimethylsulfoxide]. The reaction was stopped by the addition of 5 μl of an aqueous buffer (25 mM Hepes/NaOH pH 7.5, 0.28% (w/v) bovine serum albumin) containing EDTA (90 mM) and the HTRF (Homogeneous Time Resolved Fluorescence) detection reagents streptavidine-XLent (0.2 μM, from Cis Biointernational, Marcoule, France) and PT66-Eu-Chelate (0.3 ng/μl; a europium-chelate labelled anti-phospho-tyrosine antibody from Perkin Elmer).
(§1) The resulting mixture was incubated 1 h at 22° C. to allow the binding of the biotinylated phosphorylated peptide to the streptavidine-XLent and the PT66-Eu-Chelate. Subsequently the amount of phosphorylated substrate peptide was evaluated by measurement of the resonance energy transfer from the PT66-Eu-Chelate to the streptavidine-XLent. Therefore, the fluorescence emissions at 620 nm and 665 nm after excitation at 350 nm was measured in a HTRF reader, e.g. a Rubystar (BMG Labtechnologies, Offenburg, Germany) or a Viewlux (Perkin-Elmer). The ratio of the emissions at 665 nm and at […] was taken as the measure for the amount of phosphorylated substrate peptide. The data were normalised (enzyme reaction without inhibitor=0% inhibition, all other assay components but no enzyme=100% inhibition) and IC50 values were calculated by a 4 parameter fit using an inhouse software.
Background: Time-resolved FRET reads energy transfer from a long-lived donor to a nearby acceptor.

The next experiment has as its target T2, human KDR (Homo sapiens, UniProt P35968).
T2 construct: GST-tagged recombinant kinase domain of the human KDR; GST; host or cells: SF-9 insect cells
Nature of the experiment: KDR Kinase Assay, HTRF (assay 5). The conditions noted are these: 10 μM ATP. How it is done: Assay 5: KDR Kinase Assay
KDR inhibitory activity of compounds of the present invention was quantified employing the KDR HTRF assay as described in the following paragraphs.
GST-tagged recombinant kinase domain of the human KDR expressed in SF-9 cells was used as kinase. As substrate for the kinase reaction the biotinylated peptide biotin-Ahx-DFGLARDMYDKEYYSVG (C-terminus in acid form) was used which can be purchased e.g. form the company Biosynthan GmbH (Berlin-Buch, Germany). KDR was incubated for 45 min at 22° C. in the presence of different concentrations of test compounds in 5 μl assay buffer [50 mM Hepes/NaOH pH 7.0, 25 mM MgCl2, 5 mM MnCl2, 1.0 mM dithiothreitol, 0.1 mM sodium ortho-vanadate, 10 μM adenosine-tri-phosphate (ATP), 0.5 μM substrate, 0.001% (v/v) Nonidet-P40 (Sigma), 1% (v/v) dimethylsulfoxide]. The concentration of KDR was adjusted depending of the activity of the enzyme lot and was chosen appropriate to have the assay in the linear range. The reaction was stopped by the addition of 5 μl of a solution of HTRF detection reagents (0.1 μM streptavidine-XLent and 2 nM PT66-Eu-Chelate, an europium-chelate labelled anti-phospho-tyrosine antibody from Perkin Elmer) in an aqueous EDTA-solution (125 mM EDTA, 0.2% (w/v) bovine serum albumin in 50 mM HEPES/NaOH pH 7.0).
as §1, with “substrate” for “substrate peptide”, “substrate.” for “substrate peptide.”

In another experiment the target is T3, Plk1 (Homo sapiens, UniProt P53350).
T3 construct: N-terminally 6His-tagged full length Plk1; 6His (N); made in house
Description: Plk1 Inhibition Assay, SPA (assay 6). The following applies: ATP 0.5 μM. The text has this: Assay 6: Plk1 Inhibition Assay
Plk1 phosphorylates serine/threonine residues of the biotinylated substrate bovine α-casein in the presence of [γ-^33P]ATP. Detection of the radiolabeled phosphorylated product is achieved by binding to streptavidine-coated SPA beads. The biotin moieties of biotinylated casein bind with high affinity to the streptavidine. The radiolabeled biotinylated casein produced by the Plk1 kinase reaction is able to generate a chemoluminescent signal when strepatavidine-mediated binding occurs to the scintillant-containing surface of the beads due to the close proximity of the radiolabel and the scintillant. […] The signals obtained are therefore indicative of the Plk1 kinase activity. Measurement is performed in a Perkin-Elmer TopCount instrument.
Enzyme: Purified human recombinant PLK1 [N-terminally 6His-tagged full length Plk1], prepared in house, conc.: 0.4 μg/μl Substrate: biotinylated bovine α-casein. Unbiotinylated casein obtained from Sigma was biotinylated by standard procedures using N-hydroxysuccinimide (NHS) ester of biotin. SPA-beads: PVT streptavidin SPA Beads, Amersham (# RPNQ0007) Reference compound: Wortmannin Assay plates: 384-well plates, small volume, white, Greiner (#784075) Buffer Materials Hepes: Sigma (# H-4034), MnCl2: Sigma (# M-1787), MgCl2: Sigma [# M-1028], NaCl: Merck [#1.06404.100], DTT: Biomol (#04010), NP40: Fluka (#74385), Complete EDTA-free: Roche [#1873580], ATP: Amersham (#27-2056), 33P-gamma-ATP: Perkin Elmer (Easytides # NEG/602H), EDTA: Sigma (# E-7889), PBS: Gibco (#14190-094), ATP for stopping solution: Sigma #(A-7699), DMSO: Merck [#8.02912.1000] Sealing tape: Greiner (#676080) Reader: TopCount instrument (PerkinElmer)
Assay buffer: 2.5 mM MnCl2, 5 mM MgCl2, 120 mM NaCl, 1 mM DTT, 50 mM Hepes pH 7.0, 0.01% NP40, 1× Complete (protease inhibitor cocktail) Enzyme working solution: 2.86 ng/μl PLK1 in assay buffer Substrate working solution: 1 μM ATP, 1.4 μM biotinylated a-Casein, 2.0 nCi/μl in assay buffer Stop/Detection solution: 50 μM ATP, 20 mM EDTA, 5 μg/μl beads in PBS 3. Assay protocol for small volume screen (all steps at 20° C., pipetted with CyBi-Well pipettor) • 1. 0.75 μl Compound in 30% or 100% DMSO • 2. addition of 3.5 μl Enzyme working solution • 3. addition of 3.5 μl Substrate working solution incubation 180 min • 4. addition of 10 μl Stop/Detection solution • 5. sealing of the plates, incubation 30 min, 10 min centrifugation at 1500 rpm • 6. Measurement in TopCount reader (60 sec/well)
Final concentrations, calculated for 7 μl reaction volume: PLK1 10 ng/well; a-Casein 0.7 μM; ATP 0.5 μM; gamma-33P-ATP 7 nCi/well, 2.5 mM MnCl2, 5 mM MgCl2, 120 mM NaCl, 1 mM DTT, 50 mM Hepes pH 7.0, 0.01% NP40, 1× Complete, 3% or 10% DMSO
The data were normalised (enzyme reaction without inhibitor=0% inhibition, enzyme reaction in the presence of 3.0 E-06 M wortmannin=100% inhibition) and IC50 values were calculated by a 4-parameter fit using an in house software.

Another experiment deals with T4, CDK2/CycE (Homo sapiens, UniProt P24941).
T4 construct: GST; purchased ProQinase GmbH (Freiburg, Germany); host or cells: Sf9 insect cells
Nature of the experiment: CDK2 HTRF Assay (assay 4). The conditions noted are these: pIC50 = −log IC50 in molar concentration; 10 μM ATP. From the text: CDK2/CycE—inhibitory activity of compounds of the present invention was quantified employing the CDK2/CycE HTRF assay as described in the following paragraphs.
Recombinant fusion proteins of GST and human CDK2 and of GST and human CycE, expressed in insect cells (Sf9) and purified by Glutathion-Sepharose affinity chromatography, were purchase from ProQinase GmbH (Freiburg, Germany). As substrate for the kinase reaction biotinylated peptide biotin-Ttds-YISPLKSPYKISEG (C-terminus in amid form) was used which can be purchased e.g. form the company JERINI peptide technologies (Berlin, Germany).
CDK2/CycE was incubated for 60 min at 22° C. in the presence of different concentrations of test compounds in 5 μl assay buffer [50 mM Tris/HCl pH […], 1.0 mM dithiothreitol, 0.1 mM sodium ortho-vanadate, 10 μM adenosine-tri-phosphate (ATP), 0.75 μM substrate, 0.01% (v/v) Nonidet-P40 (Sigma), 1% (v/v) dimethylsulfoxide]. The concentration of CDK2/CycE was adjusted depending of the activity of the enzyme lot and was chosen appropriate to have the assay in the linear range, typical concentrations were in the range of 1 ng/ml. The reaction was stopped by the addition of 5 μl of a solution of HTRF detection reagents (0.2 μM streptavidine-XLent and 3.4 nM Phospho-(Ser) CDKs Substrate Antibody [product #2324B, Cell Signalling Technology, Danvers, Mass., USA} and 4 nM Prot-A-EuK [Protein A labeled with Europium Cryptate from Cis biointernational, France, product no. 61PRAKLB]) in an aqueous EDTA-solution (100 mM EDTA, 800 mM KF, 0.2% (w/v) bovine serum albumin in 100 mM HEPES/NaOH pH 7.0).

T2 sequence (P35968 834-1162 limits assumed): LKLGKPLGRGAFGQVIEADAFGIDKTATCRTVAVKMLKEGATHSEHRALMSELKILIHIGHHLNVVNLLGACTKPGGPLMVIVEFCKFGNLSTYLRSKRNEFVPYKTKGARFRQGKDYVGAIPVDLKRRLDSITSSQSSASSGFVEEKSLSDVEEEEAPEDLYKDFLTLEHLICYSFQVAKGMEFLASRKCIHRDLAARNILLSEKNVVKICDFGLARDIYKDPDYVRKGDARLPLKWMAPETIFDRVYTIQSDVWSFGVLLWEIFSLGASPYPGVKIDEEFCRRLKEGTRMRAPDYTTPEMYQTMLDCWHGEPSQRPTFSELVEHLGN
T3 sequence (P53350 whole entry): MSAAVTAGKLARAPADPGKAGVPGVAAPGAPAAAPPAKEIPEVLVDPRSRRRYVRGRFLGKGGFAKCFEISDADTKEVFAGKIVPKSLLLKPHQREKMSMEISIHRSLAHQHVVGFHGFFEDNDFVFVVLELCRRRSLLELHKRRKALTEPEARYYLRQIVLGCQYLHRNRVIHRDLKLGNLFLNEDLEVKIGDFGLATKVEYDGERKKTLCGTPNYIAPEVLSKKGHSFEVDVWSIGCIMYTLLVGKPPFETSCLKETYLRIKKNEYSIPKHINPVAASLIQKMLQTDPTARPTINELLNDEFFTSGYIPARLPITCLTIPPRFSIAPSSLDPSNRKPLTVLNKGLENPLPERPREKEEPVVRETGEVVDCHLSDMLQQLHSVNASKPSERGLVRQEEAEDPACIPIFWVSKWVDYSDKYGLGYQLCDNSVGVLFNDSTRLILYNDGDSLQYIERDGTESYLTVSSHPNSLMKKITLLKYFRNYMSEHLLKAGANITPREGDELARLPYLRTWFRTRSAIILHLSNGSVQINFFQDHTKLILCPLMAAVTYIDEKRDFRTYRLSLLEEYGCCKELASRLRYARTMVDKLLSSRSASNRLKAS
T1 sequence (Q02763 770-1124 limits assumed): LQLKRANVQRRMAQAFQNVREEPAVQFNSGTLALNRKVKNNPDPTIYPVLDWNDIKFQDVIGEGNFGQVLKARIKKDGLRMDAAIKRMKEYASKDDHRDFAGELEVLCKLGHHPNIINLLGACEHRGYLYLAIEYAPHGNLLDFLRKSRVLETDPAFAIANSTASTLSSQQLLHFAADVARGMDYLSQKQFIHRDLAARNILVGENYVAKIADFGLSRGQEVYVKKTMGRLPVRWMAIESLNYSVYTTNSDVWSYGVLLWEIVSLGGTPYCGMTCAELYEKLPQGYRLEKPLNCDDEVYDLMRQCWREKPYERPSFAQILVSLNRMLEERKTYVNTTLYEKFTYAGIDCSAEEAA

`O=C(NCC#Cc1cnc2nc1NCCCNS(=O)(=O)c1cccc(c1)N2)NCc1ccccc1` [Example 5, 1-Benzyl-3-[3-(13,13-dioxo-13λ^6-thia-2,4,8,12,19-pentaaza-tricyclo[12.3.1.1^3,7]-nonadeca-1(18),3(19),4,6,14,16-hexaen-6-yl)-prop-2-ynyl]-urea]: the IC50 at Tie-2 was not above 100 nM; at human KDR, 100 to 1000 nM; at Plk1, more than 10000 nM; against CDK2/CycE, more than 10000 nM.

`O=C(NCC#Cc1cnc2nc1NCCCNS(=O)(=O)c1cccc(c1)N2)Nc1cccc(C(F)(F)F)c1` [Example 4, 1-[3-(13,13-Dioxo-13λ^6-thia-2,4,8,12,19-pentaaza-tricyclo[12.3.1.1^3,7]-nonadeca-1(18),3(19),4,6,14,16-hexaen-6-yl)-prop-2-ynyl]-3-(3-trifluoromethyl-phenyl)-urea]: the IC50 against Tie-2 is not above 100 nM; on human KDR it was not above 100 nM; against Plk1, more than 10000 nM; against CDK2/CycE, more than 10000 nM.

Take `O=S1(=O)NCCCNc2nc(ncc2C#CCNS(=O)(=O)c2cccc(Cl)c2Cl)Nc2cccc1c2` [Example 8, 2,3-Dichloro-N-[3-(13,13-dioxo-13λ^6-thia-2,4,8,12,19-pentaaza-tricyclo[12.3.1.1^3,7]-nonadeca-1(18),3(19),4,6,14,16-hexaen-6-yl)-prop-2-ynyl]-benzenesulfonamide]: the IC50 is 100 to 1000 nM against Tie-2, not above 100 nM against human KDR, more than 10000 nM against Plk1 and 1000 to 10000 nM against CDK2/CycE.

As to `Cc1ccc(F)c(S(=O)(=O)NCCC#Cc2cnc3nc2NCCCNS(=O)(=O)c2cccc(c2)N3)c1` [Example 13, N-[4-(13,13-Dioxo-13λ^6-thia-2,4,8,12,19-pentaaza-tricyclo[12.3.1.1^3,7]-nonadeca-1(18),3(19),4,6,14,16-hexaen-6-yl)-but-3-ynyl]-2-fluoro-5-methyl-benzene-sulfonamide], the IC50 is not above 100 nM on Tie-2, not above 100 nM on human KDR, more than 10000 nM at Plk1 and more than 10000 nM on CDK2/CycE.

Take `O=C(NCCC#Cc1cnc2nc1NCCCNS(=O)(=O)c1cccc(c1)N2)Nc1ccccc1` [Example 6, 1-[4-(13,13-Dioxo-13λ^6-thia-2,4,8,12,19-pentaaza-tricyclo[12.3.1.1^3,7]-nonadeca-1(18),3(19),4,6,14,16-hexaen-6-yl)-but-3-ynyl]-3-phenyl-urea]: the 50% inhibitory concentration (IC50) against Tie-2 is 100 to 1000 nM; against human KDR, not above 100 nM; on Plk1, more than 10000 nM; against CDK2/CycE, 1000 to 10000 nM.
